Measured values: article PMC12040969, “Design, synthesis, in silico studies, and apoptotic antiproliferative activity of novel thiazole-2-acetamide derivatives as tubulin polymerization inhibitors” (Frontiers in Chemistry, 2025)

Tests used:
[1] = Cell viability assay (MTT), normal cells; type: cell-based; settings: human, MCF-10A normal mammary gland epithelial cells, four-day incubation
Experimental: The impact of novel compounds 10a-o and 13a-e on cell viability was examined using the MCF-10A (human mammary gland epithelial) normal cell line. The MTT test was employed to assess the cell viability of the novel compounds after a four-day incubation with MCF-10A cells ([El-Sherief et al., 2019]; [Ramadan et al., 2020]).
The effects of compounds 10a-o and 13a-e on cell viability were assessed using the human mammary gland epithelial normal cell line (MCF-10A). The MTT assay assessed the cell viability of compounds 10a-o and 13a-e following a four-day incubation with MCF-10A cells ([El-Sherief et al., 2019]; [Ramadan et al., 2020]). Check Supplementary Appendix A for additional information.
4.2. Biological evaluation
4.2.1 Cell Viability assay (MTT assay)
MTT assay was performed to investigate the effect of the synthesized compounds on mammary epithelial cells (MCF-10A). The cells were propagated in medium consisting of Ham's F-12 medium/ Dulbecco's modified Eagle's medium (DMEM) (1:1) supplemented with 10% foetal calf serum, 2 mM glutamine, insulin (10 μg/mL), hydrocortisone (500 ng/mL) and epidermal growth factor (20 ng/mL). Trypsin ethylenediamine tetra acetic acid (EDTA) was used to passage the cells after every 2-3 days. 96-well flat-bottomed cell culture plates were used to seed the cells at a density of 10^4 cells mL-1. The medium was aspirated from all the wells of culture plates after 24 h followed by the addition of synthesized compounds (in 200 μL medium to yield a final concentration of 0.1% (v/v) dimethyl sulfoxide) into individual wells of the plates.
Four wells were designated to a single compound. The plates were allowed to incubate at 37°C for 96 h. Afterwards, the medium was aspirated and 3-[4,5-dimethylthiazol-2-yl]-2,5-diphenyltetrazolium bromide (MTT) (0.4 mg/mL) in medium was added to each well and subsequently incubated for 3 h. The medium was aspirated and 150 μL dimethyl sulfoxide (DMSO) was added to each well. The plates were vortexed followed by the measurement of absorbance at 540 nm on a microplate reader. The results were presented as inhibition (%) of proliferation in contrast to controls comprising 0.1%

prostatic - PC-3 = assay: Antiproliferative assay (MTT) PC-3; settings: for IC50: read-out: Antiproliferative activity IC50 ± SEM (µM) PC-3, PC-3, MTT
breast - MCF-7 = assay: Antiproliferative assay (MTT) MCF-7; settings: for IC50: read-out: Antiproliferative activity IC50 ± SEM (µM) MCF-7, MCF-7, MTT
colon - HCT-116 = assay: Antiproliferative assay (MTT) HCT-116; settings: for IC50: read-out: Antiproliferative activity IC50 ± SEM (µM) HCT-116, HCT-116, MTT
- MDAMB-231 = assay: Antiproliferative assay (MTT) MDAMB-231
pancreatic - MDAMB-231 = assay: Antiproliferative assay (MTT) MDAMB-231; settings: read-out: Antiproliferative activity IC50 ± SEM (µM) MDAMB-231; MDAMB-231, MTT
[2] = tested on: four human cancer cell lines (HCT-116, PC-3, MCF-7, MDAMB-231); assay: Antiproliferative assay, mean of four cell lines (GI50); settings: for IC50: Homo sapiens, read-out: GI50 (average IC50)
tubulin = assay: Tubulin polymerization inhibition assay (Cytoskeleton kit);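 on all read-outs here: Cell-free tubulin polymerization read by fluorescent reporter enhancement over a 30 min reaction, with the compound-free kit control taken as 100% activity and inhibition relative to it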; settings: for Tub %inh / Tub. enzyme inhibition assay %inhibition: 30 min; for Tub %inh: YB-EGY run; for Tub K.Activity: EC = 120, YB-EGY run; for IC50: read-out: Tubulin inhibition IC50 ± SEM, triplicate for each tested concentration; for Tub. enzyme inhibition assay %inhibition: codes 522-537 run; for Tub. enzyme inhibition assay K. Activity: control = 120, codes 522-537 run

In the case of `Cc1nc(SCC(=O)Nc2nccs2)sc1C(=O)/C=C/c1ccc(Cl)cc1` [Compound 13b, (E)-2-((5-(3-(4-chlorophenyl)acryloyl)-4-methylthiazol-2-yl)thio)-N-(thiazol-2-yl)acetamide], the viability at 96 h, 50 µM [1] is reported as 87%, the “Average of Relative viability of cells (%)” value (prostatic - PC-3; PC-3, 1.56 µM) is reported as 100% and the “Average of Relative viability of cells (%)” value (prostatic - PC-3; PC-3, 3.125 µM) is reported as 86.4%. The “Average of Relative viability of cells (%)” value (prostatic - PC-3; PC-3, 6.25 µM) was 69.2%, the “Average of Relative viability of cells (%)” value (prostatic - PC-3; PC-3, 12.5 µM) was 45.8% and the “Average of Relative viability of cells (%)” value (prostatic - PC-3; PC-3, 25 µM) was 33.7%. For the same molecule, the “Average of Relative viability of cells (%)” value (prostatic - PC-3; PC-3, 50 µM) was 25.3%, the “Average of Relative viability of cells (%)” value (prostatic - PC-3; PC-3, 100 µM) was 17.1% and the IC50 (prostatic - PC-3) was 14 ± 1.2 µM. The “Average of Relative viability of cells (%)” value (breast - MCF-7; MCF-7, 1.56 µM) was 97.8%, the “Average of Relative viability of cells (%)” value (breast - MCF-7; MCF-7, 3.125 µM) was 83.5% and the “Average of Relative viability of cells (%)” value (breast - MCF-7; MCF-7, 6.25 µM) was 57.1%. For the same molecule, the “Average of Relative viability of cells (%)” value (breast - MCF-7; MCF-7, 12.5 µM) was 39.3%, the “Average of Relative viability of cells (%)” value (breast - MCF-7; MCF-7, 25 µM) was 22.6% and the “Average of Relative viability of cells (%)” value (breast - MCF-7; MCF-7, 50 µM) was 14.7%. The “Average of Relative viability of cells (%)” value (breast - MCF-7; MCF-7, 100 µM) was 8.2%, the IC50 (breast - MCF-7) was 9 ± 0.7 µM and the “Average of Relative viability of cells (%)” value (colon - HCT-116; HCT-116, 1.56 µM) was 100%. For the same molecule, the “Average of Relative viability of cells (%)” value (colon - HCT-116; HCT-116, 3.125 µM) was 92.7%, the “Average of Relative viability of cells (%)” value (colon - HCT-116; HCT-116, 6.25 µM) was 73.3% and the “Average of Relative viability of cells (%)” value (colon - HCT-116; HCT-116, 12.5 µM) was 53.2%. For the same molecule, the “Average of Relative viability of cells (%)” value (colon - HCT-116; HCT-116, 25 µM) was 39.5%, the “Average of Relative viability of cells (%)” value (colon - HCT-116; HCT-116, 50 µM) was 27.4% and the “Average of Relative viability of cells (%)” value (colon - HCT-116; HCT-116, 100 µM) was 14.3%. For the same molecule, the IC50 (colon - HCT-116) was 17 ± 1.4 µM, the “Average of Relative viability of cells (%)” value (- MDAMB-231; MDAMB-231, 1.56 µM) was 91.7% and the “Average of Relative viability of cells (%)” value (- MDAMB-231; MDAMB-231, 3.125 µM) was 68.9%. The “Average of Relative viability of cells (%)” value (- MDAMB-231; MDAMB-231, 6.25 µM) was 60.5%, the “Average of Relative viability of cells (%)” value (- MDAMB-231; MDAMB-231, 12.5 µM) was 34.6% and the “Average of Relative viability of cells (%)” value (- MDAMB-231; MDAMB-231, 25 µM) was 26.3%. The “Average of Relative viability of cells (%)” value (- MDAMB-231; MDAMB-231, 50 µM) was 17.4%, the “Average of Relative viability of cells (%)” value (- MDAMB-231; MDAMB-231, 100 µM) was 9.2% and the IC50 (pancreatic - MDAMB-231) was 8 ± 0.7 µM. For the same molecule, the “Reduced potency compared to doxorubicin (GI50)” value ([2]; GI50 ratio) was “at least 2.5 fold”, the “Reduced potency compared to sorafenib (GI50)” value ([2]; GI50 ratio) was ≥ 1.5 fold and the IC50 [2] was 12 µM. For the same molecule, the Tub %inh (tubulin; conc 0.1 (unit not given)) was 15.2%, the “Tub K.Activity” value (tubulin; conc 0.1 (unit not given)) was 101.7 and the Tub %inh (tubulin; conc 1 (unit not given)) was 32.3%. The “Tub K.Activity” value (tubulin; conc 1 (unit not given)) was 81.254, the Tub %inh (tubulin; conc 10 (unit not given)) was 54.2% and the “Tub K.Activity” value (tubulin; conc 10 (unit not given)) was 54.918. For the same molecule, the Tub %inh (tubulin; conc 50 (unit not given)) was 76.9%, the “Tub K.Activity” value (tubulin; conc 50 (unit not given)) was 27.751 and the Tub %inh (tubulin; conc 100 (unit not given)) was 92.3%. For the same molecule, the “Tub K.Activity” value (tubulin; conc 100 (unit not given)) was 9.196 and the IC50 (tubulin) was 3.73 ± 0.11 µM.

Work on `CNC(=O)c1cc(Oc2ccc(NC(=O)Nc3ccc(Cl)c(C(F)(F)F)c3)cc2)ccn1` [Sorafenib, reference compound] yielded an IC50 (prostatic - PC-3) of 12 ± 0.9 µM, an IC50 (breast - MCF-7) of 7 ± 0.3 µM and an IC50 (colon - HCT-116) of 6 ± 0.3 µM. The IC50 (pancreatic - MDAMB-231) was 8 ± 0.4 µM and the IC50 [2] was 8 µM.

In the case of `Cc1nc(SCC(=O)Nc2nc(-c3ccc(Cl)cc3)cs2)sc1C(=O)/C=C/c1ccc(Cl)cc1` [Compound 10g, (E)-2-((5-(3-(4-chlorophenyl)acryloyl)-4-methylthiazol-2-yl)thio)-N-(4-(4-chlorophenyl)thiazol-2-yl)acetamide], the viability at 96 h, 50 µM [1] is reported as 89%, the “Tub. enzyme inhibition assay %inhibition” value (tubulin; conc 0.01 (unit not given)) is reported as 0.65% and the “Tub. enzyme inhibition assay K. Activity” value (tubulin; conc 0.01 (unit not given)) is reported as 119.22. The “Tub. enzyme inhibition assay %inhibition” value (tubulin; conc 0.1 (unit not given)) was 5.24%, the “Tub. enzyme inhibition assay K. Activity” value (tubulin; conc 0.1 (unit not given)) was 113.71 and the “Tub. enzyme inhibition assay %inhibition” value (tubulin; conc 1 (unit not given)) was 15.3%. For the same molecule, the “Tub. enzyme inhibition assay K. Activity” value (tubulin; conc 1 (unit not given)) was 101.63, the “Tub. enzyme inhibition assay %inhibition” value (tubulin; conc 10 (unit not given)) was 32.3% and the “Tub. enzyme inhibition assay K. Activity” value (tubulin; conc 10 (unit not given)) was 81.206. For the same molecule, the “Tub. enzyme inhibition assay %inhibition” value (tubulin; conc 100 (unit not given)) was 70.5%, the “Tub. enzyme inhibition assay K. Activity” value (tubulin; conc 100 (unit not given)) was 35.432 and the IC50 (tubulin) was 59.4 ± 3.78 µM. For the same molecule, the “Tub. (IC50) IC50±SD” value (tubulin; supplement raw data, lab codes) was 32.45 ± 2.07 µg/mL.
